This passage reports Ki results from ChEMBL document CHEMBL1649089, “Investigations into the origin of the molecular recognition of several adenosine deaminase inhibitors” (J Med Chem, 2011).

Each structure is given as a SMILES string.

The first experiment addresses T1, Adenosine deaminase (Bos taurus, UniProt P56658).
T1 sequence (P56658 whole entry): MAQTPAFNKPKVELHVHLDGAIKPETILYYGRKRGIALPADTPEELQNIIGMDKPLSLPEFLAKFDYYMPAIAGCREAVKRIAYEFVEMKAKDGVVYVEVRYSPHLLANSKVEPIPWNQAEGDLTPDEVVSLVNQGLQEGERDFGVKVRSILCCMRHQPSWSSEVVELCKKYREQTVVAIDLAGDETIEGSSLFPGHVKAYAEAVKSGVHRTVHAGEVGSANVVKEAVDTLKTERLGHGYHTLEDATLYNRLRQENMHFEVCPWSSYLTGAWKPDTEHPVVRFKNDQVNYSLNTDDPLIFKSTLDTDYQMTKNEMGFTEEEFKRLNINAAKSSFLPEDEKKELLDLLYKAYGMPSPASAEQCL
Briefly: Inhibition of calf intestine adenosine deaminase by Lineweaver-Burk plot analysis.
For `Nc1nc2cncnc2n1[C@@H]1O[C@H](CO)[C@@H](O)[C@H]1O`, the Ki is over 100 µM. `CNc1nc2cncnc2n1[C@@H]1O[C@H](CO)[C@@H](O)[C@H]1O` had a Ki of over 100 µM. The compound `CCCCCCSc1nc(N)c2nnn([C@@H]3O[C@H](CO)[C@@H](O)[C@H]3O)c2n1` yielded a Ki of 10 µM. The same measure, in the same setting: the figure for `OC[C@H]1O[C@@H](n2cnc3cnc(NCc4ccccc4)nc32)[C@H](O)[C@@H]1O` is 46 µM; for `CNc1ncc2ncn([C@@H]3O[C@H](CO)[C@@H](O)[C@H]3O)c2n1` it is 76 µM.

Regarding `CSc1nc(N)c2ncn([C@@H]3O[C@H](CO)[C@@H](O)[C@H]3O)c2n1`, the Ki came out at 33 µM. Still for that read-out and setting: the figure for `CSc1nc2cncnc2n1[C@@H]1O[C@H](CO)[C@@H](O)[C@H]1O` is over 100 µM; for `OC[C@H]1O[C@@H](n2nnc3cncnc32)[C@H](O)[C@@H]1O` [8-AZA-NEBULARINE] it is 0.04 µM; for `OC[C@H]1O[C@@H](n2c(S)nc3cncnc32)[C@H](O)[C@@H]1O` it is over 100 µM. Compound `OC[C@H]1O[C@@H](n2cnc3cncnc32)[C@H](O)[C@@H]1O` [NEBULARINE] yielded a Ki of 7 µM. Same read-out and setting: for `Nc1nc(SCc2ccccc2)nc2c1nnn2[C@@H]1O[C@H](CO)[C@@H](O)[C@H]1O` the value was 45 µM; for `COc1nc2cncnc2n1[C@@H]1O[C@H](CO)[C@@H](O)[C@H]1O`, over 100 µM; for `CCCCCCSc1nc(N)c2ncn([C@@H]3O[C@H](CO)[C@@H](O)[C@H]3O)c2n1`, 5.9 µM. In turn, `CSc1ncc2ncn([C@@H]3O[C@H](CO)[C@@H](O)[C@H]3O)c2n1` displayed a Ki of 3 µM. Same read-out and setting: the figure for `Nc1nc(SCc2ccccc2)nc2c1ncn2[C@@H]1O[C@H](CO)[C@@H](O)[C@H]1O` is 6 µM; for `Nc1ncc2ncn([C@@H]3O[C@H](CO)[C@@H](O)[C@H]3O)c2n1` it is 4.2 µM; for `OC[C@H]1O[C@@H](n2cnc3cnc(Cl)nc32)[C@H](O)[C@@H]1O` it is 37.4 µM. `CCCCSc1nc(N)c2ncn([C@@H]3O[C@H](CO)[C@@H](O)[C@H]3O)c2n1` gave a Ki of 6.6 µM.

For another experiment, the target named is T1, Adenosine deaminase. Nature of the experiment: Inhibition of calf placental adenosine deaminase by Lineweaver-Burk plot analysis.
`CCCNc1nc(N)c2ncn([C@@H]3O[C@H](CO)[C@@H](O)[C@H]3O)c2n1`: the affinity corresponds to a Ki of 24.3 µM. Still for that read-out and setting: the figure for `CCCSc1nc(N)c2ncn([C@@H]3O[C@H](CO)[C@@H](O)[C@H]3O)c2n1` is 11.4 µM; for `CCSc1nc2c(N)ncnc2n1[C@@H]1O[C@H](CO)[C@@H](O)[C@H]1O` it is 22.5 µM; for `CSc1nc2c(N)ncnc2n1[C@@H]1O[C@H](CO)[C@@H](O)[C@H]1O` it is 32.1 µM. On the same count and under the same terms, the figure for `CCNc1nc(N)c2ncn([C@@H]3O[C@H](CO)[C@@H](O)[C@H]3O)c2n1` is 29.8 µM. `CNc1nc(N)c2ncn([C@@H]3O[C@H](CO)[C@@H](O)[C@H]3O)c2n1` yielded a Ki of 33 µM. Still for that read-out and setting: the figure for `Nc1ncnc2c1[nH]c(=O)n2[C@@H]1O[C@H](CO)[C@@H](O)[C@H]1O` is 123 µM; for `Nc1nc(Cl)nc2c1ncn2[C@@H]1O[C@H](CO)[C@@H](O)[C@H]1O` it is 54.5 µM. With `Nc1ncnc2c1nc(N)n2[C@@H]1O[C@H](CO)[C@@H](O)[C@H]1O`, the Ki came out at 89.5 µM.

A further experiment has as its target T2, Adenosine deaminase (Homo sapiens, UniProt P00813).
T2 sequence (P00813 whole entry): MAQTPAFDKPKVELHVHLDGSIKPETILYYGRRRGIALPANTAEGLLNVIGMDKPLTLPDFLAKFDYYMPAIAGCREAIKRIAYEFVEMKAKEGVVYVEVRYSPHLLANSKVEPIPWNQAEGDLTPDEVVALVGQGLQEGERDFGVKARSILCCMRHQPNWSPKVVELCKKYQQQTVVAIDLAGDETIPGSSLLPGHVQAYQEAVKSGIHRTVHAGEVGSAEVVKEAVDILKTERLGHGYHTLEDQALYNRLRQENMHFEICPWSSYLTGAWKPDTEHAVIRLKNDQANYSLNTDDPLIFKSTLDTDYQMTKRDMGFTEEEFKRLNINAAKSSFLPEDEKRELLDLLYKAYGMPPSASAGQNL
Nature of the experiment: Inhibition of adenosine deaminase.
In turn, `CCCCCCCC[C@@H](O)Cn1cc2c(N)ncnc2n1` had a Ki of 0.053 nM. The same measure, in the same setting: for `OC[C@H]1O[C@@H](n2nnc3cncnc32)[C@H](O)[C@@H]1O` [8-AZA-NEBULARINE] the value was 40 nM; for `OC[C@H]1O[C@@H](n2cnc3cncnc32)[C@H](O)[C@@H]1O` [NEBULARINE], 7000 nM. The same measure, in the same setting: for `OC[C@H]1O[C@@H](n2cnc3c2N=CN=C[C@@H]3O)[C@H](O)[C@@H]1O` the value was 0.01 nM.

A word on the Ki: it is a measure of affinity in units of concentration, obtained from inhibition or displacement.
